Data set [1] concerns the target T1, MRGPRX4 (Homo sapiens, UniProt Q96LA9). In words: In vitro activation (agonism) of MRGPRX4, IP-One Gq HTRF assay. It counts as cell-based. The settings on record: read-out: agonist activity against MRGPRX4. As to the method: Metabolites of heme (bilirubin, biliverdin, urobilin, urobilinogen, and stercobilin) were analyzed for in vitro activation of MRGPRX4. Cells were plated in a 384-well assay plate at 20,000 cells per well in 12 μL of Opti-MEM and kept in an incubator overnight. On the day of the assay, different agonists solubilized at 10 mM in 0.1% NaOH were added as a 10-point curve ([…] final top concentration with 1:3 serial dilutions) using a Tecan D300E digital dispenser. Agonists were diluted in assay buffer (final concentrations of 5.7 mM Tris-HCl, 43 mM NaCl, 50 mM LiCl, pH=8) and 2 μL of the appropriate agonist are added to each well. Plates were incubated in the dark for 1 h at 37° C. and then for 30 minutes at room temperature. IP-1 standards and HTRF detection reagents were added according to the IP-One—Gq Kit purchased from Cisbio (part number 62IPAPEJ) and incubated in the dark for 1 h at room temperature. The plate was read on a Molecular Devices SpectraMax iD5 plate reader. The HTRF ratio was calculated from the raw data and graphed using GraphPad Prism to calculate an IC50 value for each compound.
(In general: In TR-FRET formats the signal depends on donor and acceptor labels being close together.)

The nature of data set [2]: Mouse pharmacokinetics study, 50 mg/kg oral gavage, plasma LC-MS/MS. It counts as in vivo. The settings on record: male C57BL/6 mice, non-fasted. As to the method:
Compounds were formulated in 5% DMSO, 5% Solutol, and […] phosphate buffered saline at a concentration of 5 mg/mL, and typically appeared as a fine homogenous suspension. Male C57BL/6 mice (n=3/compound) were administered a 50 mg/kg dose of each compound by oral gavage under a non-fasted condition. Blood samples were collected via the saphenous vein onto K2-EDTA at 0.25, 0.5, 1, 2, 4, 8 and 24 hours after dosing, and plasma was prepared and stored at […] until analysis. Plasma sample preparation for analysis was done by protein precipitation using acetonitrile (including Celecoxib as an internal standard) followed by centrifugation. Compound concentrations were determined in extracted plasma using LC-MS/MS relative to an 8 point standard curve covering the 1 to 3000 ng/mL range. Non-compartmental analysis using Phoenix WinNonlin was used to estimate pharmacokinetic parameters including area under the curve, clearance, and half-life. The administered dose was confirmed by analysis of residual dosing material by UPLC-UV relative to a single point calibration sample.

Data set [3] addresses T1, MRGPRX4. In words: MRGPR X4 antagonist activity, IP-One Gq HTRF assay in stably transfected HEK cells (versus agonist bilirubin, deoxycholic acid, conjugated bilirubin, urobilin, obeticholic acid or BAR502). Also noted: expressed in transfected cells; host or cells: HEK cells, stably transfected. The format is cell-based. In a few lines:
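Stably transfected HEK cells expressing human MRGPR X4, seeded overnight, given compounds as 10-point 1:3 curves from 10 uM final top, incubated 1 h at 37° C then 30 min at room temperature. IP-1 measured by IP-One Gq HTRF. IC50 derived from the HTRF ratio.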

The mark [4] stands for this setting: read-out: IC50 (10 μM BAR502) nM, MRGPRX4 antagonists versus 10 μM BAR502 agonist.
Setting [5] is: versus 10 μM Bilirubin agonist, HEK cells expressing human MRGPR X4, read-out: MRGPR4 Antagonist Activity.
[6] abbreviates: versus 10 μM Bilirubin agonist, read-out: IC50 (Bilirubin agonist).
Where [7] appears, read: versus 20 μM deoxycholic acid, read-out: IC50 (Deoxycholic Acid agonist).
[8] abbreviates: versus 20 μM obeticholic acid, read-out: IC50 (Obeticholic Acid Agonist).
Setting [9] is: versus 50 μM urobilin, read-out: IC50 (Urobilin Agonist).
Where [10] appears, read: versus 100 μM conjugated bilirubin, read-out: IC50 (Conjugated Bilirubin Agonist).

Like-named read-outs stand apart in the source and are kept apart here.

The source of these data is patent US11840521B2, “Modulators of Mas-related G-protein receptor X4 and related products and methods” (Escient Pharmaceuticals, Inc., priority 2019, dated 2023).

By Cmax is commonly meant the highest concentration seen after dosing.

T1 sequence (Q96LA9 whole entry): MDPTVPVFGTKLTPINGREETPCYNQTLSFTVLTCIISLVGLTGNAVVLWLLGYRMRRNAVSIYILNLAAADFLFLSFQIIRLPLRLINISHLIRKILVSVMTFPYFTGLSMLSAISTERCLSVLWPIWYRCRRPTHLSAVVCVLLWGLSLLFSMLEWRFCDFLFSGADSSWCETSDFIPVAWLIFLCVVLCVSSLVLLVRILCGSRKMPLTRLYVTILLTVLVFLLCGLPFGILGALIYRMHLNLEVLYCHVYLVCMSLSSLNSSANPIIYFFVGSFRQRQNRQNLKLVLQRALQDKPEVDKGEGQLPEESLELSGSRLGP

As to `CC[C@H]1[C@@H](O)[C@@H]2[C@H](CC[C@]3(C)[C@@H]([C@H](C)CCO)CC[C@@H]23)[C@@]2(C)CC[C@@H](O)C[C@@H]12` [BAR502], in data set [1], the EC50 was 5700 nM.
Turning to `O=C(O)c1cccc(COc2ccc(Cl)cc2Cl)c1` [Compound 1-18], the AUC in data set [2] is on record as 376 μMxhr. This compound came in with a peak concentration (Cmax) in data set [2] of 113 µM. The T-1/2 in data set [2] is 4.2 h. For the same compound, the IC50 in data set [3] (setting [4]) is 48 nM; in data set [3] (setting [5]), less than 100 nM; in data set [3] (setting [6]) it was 57 nM; in data set [3] (setting [7]), 130 nM; in data set [3] (setting [8]), 40 nM; in data set [3] (setting [9]), 230 nM. For the same compound, the IC50 in data set [3] (setting [10]) is 130 nM.
`O=C(O)c1cccc(COc2ccc(C(F)(F)F)cc2Cl)c1` [Compound 1-29] came in with an AUC in data set [2] of 615 μMxhr. This compound also came in with a Cmax in data set [2] of 196 µM. In data set [2], this compound registered a T-1/2 of 4.6 h. In addition, the IC50 in data set [3] (setting [5]) is less than 100 nM; in data set [3] (setting [6]) it was 20 nM; in data set [3] (setting [7]), 46 nM; in data set [3] (setting [8]), 25 nM; in data set [3] (setting [9]), 16 nM; in data set [3] (setting [10]), 46 nM.
With `O=C(O)c1cccc(COc2ccc(C(F)(F)F)cc2Cl)c1F` [Compound 1-55, 3-((2-chloro-4-(trifluoromethyl)phenoxy)methyl)-2-fluorobenzoic acid], the AUC in data set [2] is reported as 2150 μMxhr. The compound also registered a Cmax in data set [2] of 230 µM. The T-1/2 in data set [2] amounted to 11.2 h. Further, the IC50 in data set [3] (setting [4]) was 16 nM; in data set [3] (setting [5]), less than 100 nM; in data set [3] (setting [6]) it was 6 nM; in data set [3] (setting [7]), 22 nM; in data set [3] (setting [8]), 11 nM; in data set [3] (setting [9]), 23 nM. For the same compound, in data set [3] (setting [10]), the IC50 was 14 nM.
For `O=C(O)c1cccc(COc2ccc(C(F)(F)F)cc2Cl)n1` [Compound 1-56, 6-((2-chloro-4-(trifluoromethyl)phenoxy)methyl)picolinic acid], the AUC in data set [2] is listed as 880 μMxhr. This compound gave a Cmax in data set [2] of 162 µM. This compound also came in with a T-1/2 in data set [2] of 3.2 h. For the same compound, the IC50 in data set [3] (setting [4]) was 16 nM; in data set [3] (setting [5]), less than 100 nM; in data set [3] (setting [6]), 28 nM; in data set [3] (setting [7]), 30 nM; in data set [3] (setting [8]), 24 nM; in data set [3] (setting [9]) it was 21 nM. Further, the IC50 in data set [3] (setting [10]) was 32 nM.
`O=C(O)c1cc(F)cc(COc2ccc(C(F)(F)F)cc2Cl)c1` [Compound 1-65, 3-((2-chloro-4-(trifluoromethyl)phenoxy)methyl)-5-fluorobenzoic acid] returned an AUC in data set [2] of 1037 μMxhr. Besides, the highest level in data set [2] (Cmax) was 220 µM. In addition, the T-1/2 in data set [2] came to 4.8 h. Also, the IC50 in data set [3] (setting [4]) was 13 nM; in data set [3] (setting [5]), less than 100 nM; in data set [3] (setting [6]) it was 9 nM; in data set [3] (setting [7]), 28 nM; in data set [3] (setting [8]), 23 nM; in data set [3] (setting [9]), 21 nM. The IC50 in data set [3] (setting [10]) was 17 nM.
Regarding `O=C(O)c1cccc(COc2ccc(Cl)c(Cl)c2Cl)c1` [Compound 1-78], the AUC in data set [2] was 219 μMxhr. Further, in data set [2], the Cmax was found to be 57 µM. This compound came in with a T-1/2 in data set [2] of 4.0 h. The IC50 in data set [3] (setting [4]) was 20 nM; in data set [3] (setting [5]), less than 100 nM; in data set [3] (setting [6]), 7 nM; in data set [3] (setting [7]) it was 24 nM; in data set [3] (setting [8]), 21 nM; in data set [3] (setting [9]), 13 nM. The IC50 in data set [3] (setting [10]) stood at 24 nM.
Regarding `O=C(O)c1cc(COc2ccc(C(F)(F)F)cc2Cl)ccc1F` [Compound 1-85, 5-((2-chloro-4-(trifluoromethyl)phenoxy)methyl)-2-fluorobenzoic acid], in data set [2], the AUC came out at 1069 μMxhr. Further, the Cmax in data set [2] stood at 239 µM. The compound further came in with a T-1/2 in data set [2] of 4.7 h. The IC50 in data set [3] (setting [5]) is less than 100 nM; in data set [3] (setting [6]) it was 20 nM; in data set [3] (setting [7]), 30 nM; in data set [3] (setting [8]), 15 nM; in data set [3] (setting [9]), 41 nM; in data set [3] (setting [10]), 29 nM.
As to `O=C(O)c1cccc(COc2ccc(Cl)cc2Cl)n1` [Compound 1-115], the AUC in data set [2] is on record as 1206 μMxhr. In data set [2], the highest concentration (Cmax) is 306 µM. In data set [2], this compound had a T-1/2 of 3.0 h. The IC50 was less than 100 nM in data set [3] (setting [5]); 81 nM in data set [3] (setting [6]); 230 nM in data set [3] (setting [7]); 47 nM in data set [3] (setting [8]); 180 nM in data set [3] (setting [10]).
For `O=C(O)c1cccc(COc2ccc(Cl)cc2Cl)c1F` [Compound 4-1, 3-((2,4-dichlorophenoxy)methyl)-2-fluorobenzoic acid], in data set [2], the AUC came to 1503 μMxhr. Moreover, the peak level in data set [2] (Cmax) was 231 µM. In addition, the T-1/2 in data set [2] worked out at 5.9 h. Moreover, the IC50 in data set [3] (setting [5]) was less than 100 nM; in data set [3] (setting [6]), 27 nM; in data set [3] (setting [7]) it was 55 nM; in data set [3] (setting [10]), 81 nM.
`Cc1cc(COc2ccc(C(F)(F)F)cc2Cl)cc(C(=O)O)c1` [Compound 4-10, 3-((2-chloro-4-(trifluoromethyl)phenoxy)methyl)-5-methylbenzoic acid] came in with an AUC in data set [2] of 974 μMxhr. Besides, in data set [2], the Cmax turned out to be 260 µM. In addition, in data set [2], the T-1/2 was determined as 4.6 h. The IC50 is less than 100 nM in data set [3] (setting [5]); 16 nM in data set [3] (setting [6]); 22 nM in data set [3] (setting [7]); 15 nM in data set [3] (setting [8]); 35 nM in data set [3] (setting [9]); 21 nM in data set [3] (setting [10]).
In data set [2], `Cc1cc(COc2ccc(C(F)(F)F)cc2C)cc(C(=O)O)c1` [Compound 4-11] gave an AUC of 572 μMxhr. Moreover, the peak concentration (Cmax) in data set [2] is 257 µM. The compound also came in with a T-1/2 in data set [2] of 3.6 h. The IC50 was less than 100 nM in data set [3] (setting [5]); 24 nM in data set [3] (setting [6]); 63 nM in data set [3] (setting [7]); 25 nM in data set [3] (setting [8]); 35 nM in data set [3] (setting [9]); 41 nM in data set [3] (setting [10]).
As for `CCc1cc(COc2ccc(C(F)(F)F)cc2Cl)nc(C(=O)O)c1` [Compound 42-3], the AUC in data set [2] came to 4700 μMxhr. In data set [2], the Cmax came out at 460 µM. The same compound came in with a T-1/2 in data set [2] of 5.4 h. For the same compound, the IC50 in data set [3] (setting [4]) was 17 nM; in data set [3] (setting [5]), less than 100 nM; in data set [3] (setting [6]) it was 16 nM; in data set [3] (setting [7]), 16 nM; in data set [3] (setting [8]) it was 7 nM; in data set [3] (setting [9]) it was 21 nM. Also, in data set [3] (setting [10]), the IC50 is 28 nM.
On to `CC(Oc1ccc(C(F)(F)F)cc1Cl)c1cccc(C(=O)O)c1` (centres unmarked) [Compound 62-1, 3-(1-(2-chloro-4-(trifluoromethyl)phenoxy)ethyl)benzoic acid], for which, in data set [3] (setting [5]), the IC50 is less than 100 nM.
As to `CNCc1cccc(COc2ccc(C(F)(F)F)cc2Cl)c1` [Compound 63-1, 1-(3-((2-chloro-4-(trifluoromethyl)phenoxy)methyl)phenyl)-N-methylmethanamine], the IC50 in data set [3] (setting [5]) lay within 100 to 500 nM.
Turning to `O=C(O)Cc1cccc(COc2ccc(Cl)cc2Cl)c1` [Compound 64-1, 2-(3-((2,4-dichlorophenoxy)methyl)phenyl)acetic acid], the IC50 in data set [3] (setting [5]) was more than 2500 nM.
Turning to `Nc1cccc(COc2ccc(C(F)(F)F)cc2Cl)c1` [Compound 65-1, 3-((2-chloro-4-(trifluoromethyl)phenoxy)methyl)aniline], the IC50 in data set [3] (setting [5]) was 500 to 1000 nM.
